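Growth conditions: 96-well plates. Treatment: test compound, 48 hours, 5 concentrations. Analysis: linear interpolation between bracketing concentrations; unreached endpoints set to highest concentration. The concentration for 50% growth inhibition is given as GI50. TGI marks complete inhibition of growth.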
Assays:
Assay in all cases: inhibition of tumour cell growth, NCI panel, 48 h
[1] = test system: HCT-116 colon
[2] = test system: KM12 colon
[3] = test system: LOX IMVI melanoma
[4] = test system: M14 melanoma
[5] = test system: NCI-H522 lung
[6] = test system: RXF 393 renal
[7] = test system: SK-MEL-2 melanoma
[8] = test system: SK-MEL-28 melanoma
[9] = test system: SN12C renal
[10] = test system: UACC-62 melanoma

Row | Compound | TGI [1] [µM] | TGI [2] [µM] | TGI [3] [µM] | TGI [4] [µM] | TGI [5] [µM] | TGI [6] [µM] | TGI [7] [µM] | TGI [8] [µM] | TGI [9] [µM] | TGI [10] [µM] | GI50 [1] [µM] | GI50 [2] [µM] | GI50 [3] [µM] | GI50 [4] [µM] | GI50 [5] [µM] | GI50 [6] [µM] | GI50 [7] [µM] | GI50 [8] [µM] | GI50 [9] [µM] | GI50 [10] [µM]
1 | CN(C)CCNC(=O)Cn1ccc(=O)c2c([N+](=O)[O-])cccc21 | > 100 | > 100 | > 100 | > 100 | > 100 | > 100 | > 100 | > 100 | > 100 | > 100 |  |  |  |  |  |  |  |  |  | 
2 | O=C(O)c1ccccc1/C=N/N=C1c2ccccc2-c2ccccc21 | > 100 | 58.7 | > 100 | > 100 | > 100 | 75.8 | > 100 | > 100 | > 100 | > 100 |  |  |  |  |  |  |  |  |  | 
3 | Cc1nc(C(N)=S)sc1C(=O)/C=C/c1c(O)ccc2ccccc12 | > 100 | > 93.1 | 73.6 | > 100 | > 63 | 98.5 | > 100 | > 100 | > 100 | > 87.9 |  |  |  |  |  |  |  |  |  | 
4 | COC(=O)C1(C)Cc2cc(OC(C)=O)c(OC(C)=O)cc2N1 (stereo not given) | 15.5 | 51.6 | 19.7 | 54.4 | 1.8 | 8.48 | 17.9 | 32.3 | > 81.8 | 17.5 | 3.96 | 20.2 | 5.06 | 15.6 | 0.633 | 2.34 | 5.92 | 13.8 | 17 | 4.09
5 | C=C1C(=O)O[C@H]2[C@H]1CC/C(C=Nc1c(N)cc(C(F)(F)F)cc1Br)=C\CC[C@@]1(C)O[C@@H]21 | 2.41 | 3.97 | 2.74 | 3.55 | 2.96 | 3.11 | 3.47 | 3.66 | 3.51 | 2.96 | 1.11 | 1.8 | 1.4 | 1.71 | 1.37 | 1.59 | 1.63 | 1.88 | 1.5 | 1.41
6 | CCCCN(CC)CC(C(C)=O)c1c(O)c2ccccc2oc1=O (stereo not given) | > 100 | > 100 | > 100 | > 100 | > 100 | > 100 | > 100 | > 100 | > 100 | > 100 |  |  |  |  |  |  |  |  |  | 
7 | CCNC(=O)c1noc(-c2cc(C(C)C)c(O)cc2O)c1-c1ccc(CN2CCOCC2)cc1 | 15.5 | 0.0741 | 0.0765 | 18.6 | 13.6 | 17.8 | 8.74 | 22.7 | > 100 | 4.92 | 0.0313 | 0.0203 | 0.0159 | 0.0384 | 0.0333 | 0.0257 | 0.0311 | 0.055 | 0.0707 | 0.0333
8 | COc1ccc(CN2CCC/C=C/CC(Cl)(Cl)C2=O)cc1 | > 100 | > 100 | > 100 | 57 | 59.4 | 78.7 | 44.8 | > 100 | > 100 | > 100 |  |  |  |  |  |  |  |  |  | 
9 | CCCCn1c(-c2ccc(C(=O)O/N=C(\N)c3ccc4c(c3)OCO4)cc2)nc(-c2ccccc2)c1-c1ccccc1 | 3.66 | > 100 | 0.379 | 17.5 | 4.89 | 4.93 | > 100 | > 100 | 3.7 | 8.93 | 1.7 | 4.72 | 0.185 | 2.85 | 2.04 | 1.85 | 4.19 | 5.69 | 1.8 | 2.72
10 | CN(C)C(=S)/N=c1\ssc(=S)n1Cc1ccncc1 | 47.8 | 16.8 | 39.9 | 62.9 | 2.99 | 70 | 52.2 | > 100 | > 100 | 25.5 |  |  |  |  |  |  |  |  |  | 
11 | CCC(=O)Nc1nc2c(ncn2C2OC(COC(=O)CC)C(OC(=O)CC)C2OC(=O)CC)c(=O)[nH]1 (stereo not given) | > 100 | > 100 | > 100 | > 100 | > 100 | > 100 | > 100 | > 100 | > 100 | > 100 |  |  |  |  |  |  |  |  |  | 
12 | CC(C)(C)C(=O)[CH-]C(=O)C(C)(C)C.CC(C)(C)C(=O)[CH-]C(=O)C(C)(C)C.CN(C)c1ccc([O-])cc1.CN(C)c1ccc([O-])cc1.[Ti+4] | > 100 | > 100 | > 100 | > 100 | > 100 | > 100 | > 100 | > 100 | > 100 | > 100 | > 100 | 64.8 | > 100 | 60.8 | > 100 | 14.4 | > 100 | > 100 | > 100 | > 100
13 | CC(C)CCC1(CCN)C(=O)NC(=O)NC1=O | > 100 | > 100 | > 100 | > 100 | > 100 | > 100 | > 100 | > 100 | > 100 | > 100 |  |  |  |  |  |  |  |  |  | 
14 | C/C(=N/NC(=O)C[N+](C)(C)C)C(CN(C)C)C(=O)Nc1ccccc1 (stereo not given) | > 100 | > 100 | > 100 | > 100 | > 100 | > 100 | > 100 | > 100 | > 100 | > 100 |  |  |  |  |  |  |  |  |  | 
15 | N#CNC(N)=Nc1ccc(Cl)cc1 | > 100 | > 100 | > 100 | > 100 | > 100 | > 100 | > 100 | > 100 | > 100 | > 100 |  |  |  |  |  |  |  |  |  | 
16 | c1c[nH]c(CN2CCOCC2)n1 | > 100 | > 100 | > 100 | > 100 | > 100 | > 100 | > 100 | > 100 | > 100 | > 100 |  |  |  |  |  |  |  |  |  | 
17 | CN1/C(=C\C=C\C2=[N+](C)c3ccccc3C2(C)C)C(C)(C)c2ccccc21 | 1.11 | 0.932 | 0.796 | 1.31 | 10.2 | 1.13 | 1.14 | 2.84 | 1.11 | 1.45 | 0.0303 | 0.0363 | 0.0445 | 0.223 | 0.0782 | 0.216 | 0.212 | 0.412 | 0.155 | 0.124

— PubChem BioAssay (NCI)
